These results are taken from US20230255869A1, “FATTY ACID DERIVATIVE, PRODUCTION PROCESS THEREFOR, HAIR COMPOSITION AND HAIR-TREATMENT METHOD” (CHEMYUNION LTDA., priority 2020, published 2023).

Assay [1] is described as follows: Shine evaluation of hair locks treated with conditioner (SAMBA Hair System, Reich-Robbins luster). Here is the method: The tests for evaluating the effectiveness in the shine of locks of hair were carried out with standardized fibers of CaucasianU, brown, straight hair, supplied by International Hair Importers— USA, model most used for these types of tests (Table 1).
The locks were washed with anti-residue shampoo and dried naturally (24±1h) before treatment.
The formulations were applied according to the protocol described below: For the locks in group G1 (Control), shampoo was applied in a standardized amount of SLES solution (8.1% active) on wet hair and gently massaged for 1 minute. Then rinsed for 1 minute.
For locks in group G2 (Placebo) and with the actives: G3 (Ricinoleamide), G4 (Cyclometicone), G5 (Phenyltrimethicone), G6 (Dimethicone), G7 (Aminopropyl phenyltrimethicone) and G8 (Propylene glycol dibenzoate) and G9 (Ricinoleate mono- and diesters), shampoo was applied in a standardized amount of placebo/standard shampoo to wet hair and gently massaged for 1 minute. Then rinsed for 1 minute. After rinsing the hair, the conditioner (3.0±0.2 g) was applied to the entire length of the hair, massaging and untangling the hair. Leaving the product to act for 2 minutes and it was rinsed for 1 minute. This protocol was repeated once, and then four more times, for all groups according to their specific treatment, described in Table 1.
The locks were kept in a controlled environment at 23±2° C. and 50±5% relative humidity (R. H.), for at least 24 hours before the tests were started. The entire test period was carried out under the same environmental conditions.
The evaluation of hair shine was performed on three locks per group, using the equipment SAMBA Hair System of the company Bossa Nova Technologies, USA.
The locks of hair were positioned on a cylindrical support that slides into the interior of the equipment, in order to carry out the measurements.
The equipment successively captures two parallel images of the locks of hair. Specular image and diffuse image. The specular image is formed only by the light reflected by the hair surfaces (first and second) of reflection. This image contains the brightness information. The diffused image (diffuse) is formed only by the scattered light coming from inside the hair.
The SAMBA system program calculates parameters associated with the reflection and refraction of light, the most used parameter is Luster, which evaluates the real state and quality of the brightness of the object under study. This parameter can be calculated simultaneously through different formulas, and for this study the analysis data obtained by the Reich-Robbins formula was used.
For the statistical evaluation of the tests, analysis of variance (ANOVA) was used. Tukey's test was applied when analysis of variance detected significant differences between the groups. For comparative tests between before and after the same sample, the t-Test (Student) was used.

Assay [2] can be described thus: Evaluation of the cuticular region of hair fibers by scanning electron microscopy (SEM). The settings on record: conditioner plus 1% active; bleached and dyed fibers; 1100x. Here is the method:
The tests to evaluate the effectiveness of the shine on locks of hair were carried out with standardized fibers of straight, dark brown hair, provided by International Hair Importers— USA.
The locks were washed with anti-residue shampoo and dried naturally (24±1h).
After the pre-treatment, the locks of hair from the groups G1, G2, G3 and G4 (average weight of 2 g per lock), were subjected to the process of chemical bleaching.
To carry out the process, a bleaching mixture was prepared with 15 g of bleaching powder and 30 g of hydrogen peroxide 30 volumes. This mixture was evenly applied to the locks of hair. After application, the locks were wrapped in aluminum foil and left to rest for 45 minutes. After the time of action of the bleaching mixture, the locks were washed and rinsed abundantly with running water (2 minutes) and received the application of a standard conditioner. After 2 minutes of rest, for the conditioner to work, the locks were rinsed again. The locks were dried with hot air from the dryer.
The whole process was repeated two more times, totaling three bleachings. […]
The evaluation of the surface of the hair fibers (cuticle region) was performed using a scanning electron microscope (SEM), model 6460 LV (JEOL). The study is based on capturing images (1100× magnification) of 10 capillary fibers randomly selected from the evaluated groups. […]

Turning to `CCCCCC[C@@H](O)C/C=C\CCCCCCCC(N)=O` [Ricinoleamide, ricinoleamide], in assay [1] (conditioner with 1% active, one treatment, vs Amino pfenyltrimethicone (1%)), the “difference of shine value greater than Amino pfenyltrimethicone group” value was 93.4%. For the same molecule, the “difference of shine value (after minus before one treatment) greater than Control group” value in assay [1] (conditioner with 1% active, one treatment, vs Control (SLES wash)) is given as 78.4%. Further, in assay [1] (conditioner with 1% active, one treatment, vs Cyclomethicone (1%)), the “difference of shine value greater than Cyclomethicone group” value was determined as 78.4%. Moreover, in assay [1] (conditioner with 1% active, one treatment, vs Dimethicone (1%)), the “difference of shine value greater than Dimethicone group” value came out at 52.7%. Besides, the “difference of shine value greater than Phenyltrimethicone group” value in assay [1] (conditioner with 1% active, one treatment, vs Phenyltrimethicone (1%)) was 56.7%. Also, in assay [1] (conditioner with 1% active, one treatment, vs Placebo conditioner), the “difference of shine value greater than Placebo group” value turned out to be 84%. Also, the “difference of shine value greater than Propilene glycol dibenzoate group” value in assay [1] (conditioner with 1% active, one treatment, vs Propilene glycol dibenzoate (1%)) is reported as 95.1%. Further, the “difference of shine value greater than ricinoleate mono- and diesters group” value in assay [1] (conditioner with 1% active, one treatment, vs ricinoleate mono- and diesters (1%)) turned out to be 54.0%. Moreover, in assay [1] (same concentrations, FIG. 1), the “efficiency in providing increased shine in the first application compared to other compounds” value was “greater efficiency”. For the same molecule, the “integrity of the cuticular region (subjective SEM evaluation) vs Control and Placebo” value in assay [2] is reported as “greater preservation of the cuticular region”.
In the case of phenyltrimethicone [reference compound], the “integrity of the cuticular region (subjective SEM evaluation) vs Control and Placebo” value in assay [2] is “preservation of the cuticular region”.
